ChEMBL document CHEMBL1201862, “PubChem BioAssay data set” (2004)
The source made the active and inactive calls.

What was measured:
[1] = biological target: Acyl-homoserine lactone acylase PvdQ (Pseudomonas aeruginosa (strain LESB58), UniProt Q9I194); experiment: P. aeruginosa PvdQ acylase inhibitors, dose response, biochemical, fluorescence, plate reader and imaging, cherry-picks (AID 493231)
HEK293 [2] = experiment: cells; settings: Homo sapiens
HEK293 [3] = experiment: NOD2 signaling inhibitors in MDP-stimulated cells, cell-based, uHTS, luminescence (AID 2001); type: functional; settings: Homo sapiens
HEK293 [4] = experiment: cells; type: functional, cell-based; settings: Homo sapiens
Tumor necrosis factor = Tumor necrosis factor (Homo sapiens, UniProt P01375); experiment: TNFa-triggered NF-kB activation inhibitors, SAR follow-up, cell-based, revised (AID 2337); type: functional
HEK293 [5] = experiment: cells; type: functional, cell-based; settings: Homo sapiens; remark: listed apart in the source
[6] = biological target: Nucleotide-binding oligomerization domain-containing protein 2 (Homo sapiens, UniProt Q9HC29); experiment: PubChem AID 2334; type: functional
[7] = biological target: T1, Ubiquitin-conjugating enzyme E2 N (Homo sapiens, UniProt P61088); type: functional;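 also: Dose-response confirmation in a TR-FRET assay detecting UBC13-driven polyubiquitin chain formation, inhibition measured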
T1 sequence (P61088 whole entry): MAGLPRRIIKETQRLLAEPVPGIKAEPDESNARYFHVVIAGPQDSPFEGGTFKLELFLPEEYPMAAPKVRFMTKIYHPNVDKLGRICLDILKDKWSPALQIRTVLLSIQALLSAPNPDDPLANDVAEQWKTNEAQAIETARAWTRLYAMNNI

HEK293 [8] = experiment: NOD1 signaling inhibitors, primary screen, cell-based, luminescence, uHTS (AID 1578); type: functional; settings: Homo sapiens
[9] = biological target: T2, Nucleotide-binding oligomerization domain-containing protein 1 (Homo sapiens, UniProt Q9Y239); experiment: NOD1 signaling inhibitors, SAR follow-up, revised (AID 2333); type: functional
T2 sequence (Q9Y239 whole entry): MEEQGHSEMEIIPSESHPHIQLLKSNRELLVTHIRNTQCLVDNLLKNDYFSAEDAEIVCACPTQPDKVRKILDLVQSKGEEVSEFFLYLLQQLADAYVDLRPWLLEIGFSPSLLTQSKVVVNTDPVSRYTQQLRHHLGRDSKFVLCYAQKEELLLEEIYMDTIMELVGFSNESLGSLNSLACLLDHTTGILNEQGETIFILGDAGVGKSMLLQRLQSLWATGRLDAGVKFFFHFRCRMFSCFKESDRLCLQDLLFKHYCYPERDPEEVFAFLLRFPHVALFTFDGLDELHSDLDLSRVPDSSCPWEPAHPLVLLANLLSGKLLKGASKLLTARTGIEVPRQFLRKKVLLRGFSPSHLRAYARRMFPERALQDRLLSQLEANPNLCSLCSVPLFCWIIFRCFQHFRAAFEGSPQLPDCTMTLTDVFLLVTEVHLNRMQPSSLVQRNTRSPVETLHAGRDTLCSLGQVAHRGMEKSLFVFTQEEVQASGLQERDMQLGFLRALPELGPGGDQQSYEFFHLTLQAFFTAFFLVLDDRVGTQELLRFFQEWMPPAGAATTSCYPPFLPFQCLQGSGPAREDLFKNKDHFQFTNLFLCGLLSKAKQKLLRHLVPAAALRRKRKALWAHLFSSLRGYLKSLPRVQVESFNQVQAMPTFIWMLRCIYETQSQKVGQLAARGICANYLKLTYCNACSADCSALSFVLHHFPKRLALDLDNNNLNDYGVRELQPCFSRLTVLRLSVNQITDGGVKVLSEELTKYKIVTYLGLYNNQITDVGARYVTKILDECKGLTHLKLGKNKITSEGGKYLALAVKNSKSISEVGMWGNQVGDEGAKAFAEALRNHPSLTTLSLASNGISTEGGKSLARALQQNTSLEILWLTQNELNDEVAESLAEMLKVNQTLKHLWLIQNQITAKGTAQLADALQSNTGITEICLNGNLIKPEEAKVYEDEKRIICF

[10] = biological target: Polyadenylate-binding protein 1 (Homo sapiens, UniProt P11940); experiment: PABP poly(A) RNA binding inhibitors, primary screen, biochemical, fluorescence polarization, uHTS (AID 2014)
[11] = biological target: Eukaryotic translation initiation factor 4H (Homo sapiens, UniProt Q15056); experiment: human eIF4H binding inhibitors, primary screen, translation initiation inhibitor project, biochemical, uHTS, fluorescence polarization (AID 2012)
[12] = biological target: DNA dC->dU-editing enzyme APOBEC-3G (Homo sapiens, UniProt Q9HC16); type: functional;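 also: Dose-response counterscreen measuring inhibition of APOBEC3G DNA deaminase activity, run while confirming APOBEC3A inhibitors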
[13] = biological target: DNA dC->dU-editing enzyme APOBEC-3A (Homo sapiens, UniProt P31941); experiment: Dose Response confirmation of small molecule APOBEC3A DNA Deaminase Inhibitors via a fluorescence-based single-stranded DNA deaminase assay. [Related pubchem assays (depositor defined):AID493011, AID493024]; type: functional
Bcl-2-like protein 10 = Bcl-2-like protein 10 (Homo sapiens, UniProt Q9HD36); experiment: displacers of TR3 peptide from Bcl-B, primary screen, selectivity assay for Bfl-1 inhibitor project, biochemical, fluorescence polarization, FITC-TR3 peptide (AID 748);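 also: fluorescence polarization from a fluorescein-labelled TR3 peptide binding purified Bcl-B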
[14] = THP-1 cell cytotoxicity, dose response, cytotoxicity control for non-replicating M. tuberculosis project (AID 489025); type: functional
[15] = HepG2 cell cytotoxicity, dose response, cytotoxicity control for non-replicating M. tuberculosis project (AID 489018); type: functional; settings: Mycobacterium tuberculosis
cells = type: functional
[16] = microbe, parasite or virus in culture; type: functional; settings: Mycobacterium tuberculosis
[17] = Vero E6 cell cytotoxicity, dose response, cytotoxicity control for non-replicating M. tuberculosis project, secondary assay (AID 492998); type: functional, VeroE6; settings: Vero C1008
[18] = biological target: Mothers against decapentaplegic homolog 3 (Homo sapiens, UniProt P84022); experiment: Smad3 binding inhibitors, lysate ELISA, dose response, cell lysate, secondary confirmation, chemiluminescent ELISA, HEK293 lysate (AID 1058); type: functional
Mothers against decapentaplegic homolog 3, sequence (P84022 whole entry): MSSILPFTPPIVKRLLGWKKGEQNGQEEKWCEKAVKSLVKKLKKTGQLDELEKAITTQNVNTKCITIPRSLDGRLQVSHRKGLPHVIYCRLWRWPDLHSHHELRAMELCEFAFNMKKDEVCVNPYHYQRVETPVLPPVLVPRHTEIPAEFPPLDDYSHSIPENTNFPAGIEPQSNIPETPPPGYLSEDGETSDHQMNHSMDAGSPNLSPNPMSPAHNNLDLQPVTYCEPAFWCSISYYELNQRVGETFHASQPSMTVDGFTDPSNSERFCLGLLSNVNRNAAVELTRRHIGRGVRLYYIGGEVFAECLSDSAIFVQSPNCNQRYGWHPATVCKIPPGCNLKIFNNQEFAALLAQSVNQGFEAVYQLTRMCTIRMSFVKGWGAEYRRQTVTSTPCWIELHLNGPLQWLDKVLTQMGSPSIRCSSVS

Tumor necrosis factor, sequence (P01375 whole entry): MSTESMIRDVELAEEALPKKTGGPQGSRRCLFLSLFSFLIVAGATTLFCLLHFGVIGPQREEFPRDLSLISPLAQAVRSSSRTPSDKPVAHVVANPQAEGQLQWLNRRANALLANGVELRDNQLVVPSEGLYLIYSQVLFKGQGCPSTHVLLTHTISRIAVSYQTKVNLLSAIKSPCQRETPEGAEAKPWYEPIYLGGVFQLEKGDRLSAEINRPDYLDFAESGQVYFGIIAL
DNA dC->dU-editing enzyme APOBEC-3G, sequence (Q9HC16 whole entry): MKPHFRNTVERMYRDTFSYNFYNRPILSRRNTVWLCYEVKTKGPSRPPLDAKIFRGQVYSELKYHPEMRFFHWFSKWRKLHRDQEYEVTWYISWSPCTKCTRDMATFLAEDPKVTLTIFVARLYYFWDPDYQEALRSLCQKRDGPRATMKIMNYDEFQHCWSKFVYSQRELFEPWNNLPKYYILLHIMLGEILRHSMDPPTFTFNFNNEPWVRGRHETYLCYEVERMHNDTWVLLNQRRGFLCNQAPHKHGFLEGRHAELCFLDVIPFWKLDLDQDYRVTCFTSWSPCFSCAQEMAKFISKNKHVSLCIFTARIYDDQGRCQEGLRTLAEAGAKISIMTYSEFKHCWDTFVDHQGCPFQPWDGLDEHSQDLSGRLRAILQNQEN
DNA dC->dU-editing enzyme APOBEC-3A, sequence (P31941 whole entry): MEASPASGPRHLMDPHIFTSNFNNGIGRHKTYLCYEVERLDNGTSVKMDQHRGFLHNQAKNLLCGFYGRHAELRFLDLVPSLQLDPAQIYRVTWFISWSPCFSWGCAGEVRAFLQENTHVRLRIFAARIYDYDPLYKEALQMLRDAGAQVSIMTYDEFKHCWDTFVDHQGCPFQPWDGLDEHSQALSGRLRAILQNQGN
Bcl-2-like protein 10, sequence (Q9HD36 whole entry): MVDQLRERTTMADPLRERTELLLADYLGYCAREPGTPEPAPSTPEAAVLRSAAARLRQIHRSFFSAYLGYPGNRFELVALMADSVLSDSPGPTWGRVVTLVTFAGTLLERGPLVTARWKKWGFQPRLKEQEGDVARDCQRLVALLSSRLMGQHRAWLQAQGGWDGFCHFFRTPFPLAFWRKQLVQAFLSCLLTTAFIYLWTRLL
Nucleotide-binding oligomerization domain-containing protein 2, sequence (Q9HC29 whole entry, the tested form may be a part): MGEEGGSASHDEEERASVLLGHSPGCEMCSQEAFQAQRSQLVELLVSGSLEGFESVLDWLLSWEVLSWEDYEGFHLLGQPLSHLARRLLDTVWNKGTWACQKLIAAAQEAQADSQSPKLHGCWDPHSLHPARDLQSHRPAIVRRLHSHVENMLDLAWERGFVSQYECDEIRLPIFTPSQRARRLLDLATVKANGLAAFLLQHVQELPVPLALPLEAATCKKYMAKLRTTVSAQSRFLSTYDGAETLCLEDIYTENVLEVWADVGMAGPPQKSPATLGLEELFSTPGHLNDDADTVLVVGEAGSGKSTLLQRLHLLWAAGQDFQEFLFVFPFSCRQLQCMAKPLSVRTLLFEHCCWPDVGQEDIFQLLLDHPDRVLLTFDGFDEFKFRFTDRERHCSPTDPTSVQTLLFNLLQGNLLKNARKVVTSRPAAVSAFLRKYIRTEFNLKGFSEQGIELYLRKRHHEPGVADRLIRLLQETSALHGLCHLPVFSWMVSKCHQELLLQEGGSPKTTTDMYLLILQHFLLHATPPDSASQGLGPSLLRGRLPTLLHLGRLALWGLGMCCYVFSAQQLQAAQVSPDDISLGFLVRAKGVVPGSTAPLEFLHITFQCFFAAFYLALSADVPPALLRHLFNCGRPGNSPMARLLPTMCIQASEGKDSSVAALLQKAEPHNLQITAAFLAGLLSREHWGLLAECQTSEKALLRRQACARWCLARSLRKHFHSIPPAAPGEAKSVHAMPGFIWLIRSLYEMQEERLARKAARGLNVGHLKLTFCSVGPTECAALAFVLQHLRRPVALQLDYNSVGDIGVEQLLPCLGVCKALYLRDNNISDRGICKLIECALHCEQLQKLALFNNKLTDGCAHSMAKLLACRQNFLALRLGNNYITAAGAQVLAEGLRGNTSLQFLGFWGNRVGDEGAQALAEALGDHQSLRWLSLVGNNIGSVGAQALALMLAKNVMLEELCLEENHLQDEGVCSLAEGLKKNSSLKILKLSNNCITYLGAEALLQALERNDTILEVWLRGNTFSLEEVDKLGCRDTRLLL
Acyl-homoserine lactone acylase PvdQ, sequence (Q9I194 24-193 limits assumed): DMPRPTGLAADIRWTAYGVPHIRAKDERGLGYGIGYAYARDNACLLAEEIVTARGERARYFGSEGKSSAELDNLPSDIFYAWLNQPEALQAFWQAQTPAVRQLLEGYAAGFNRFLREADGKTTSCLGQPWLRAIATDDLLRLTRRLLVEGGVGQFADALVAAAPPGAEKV
Acyl-homoserine lactone acylase PvdQ, sequence (Q9I194 217-762 limits assumed): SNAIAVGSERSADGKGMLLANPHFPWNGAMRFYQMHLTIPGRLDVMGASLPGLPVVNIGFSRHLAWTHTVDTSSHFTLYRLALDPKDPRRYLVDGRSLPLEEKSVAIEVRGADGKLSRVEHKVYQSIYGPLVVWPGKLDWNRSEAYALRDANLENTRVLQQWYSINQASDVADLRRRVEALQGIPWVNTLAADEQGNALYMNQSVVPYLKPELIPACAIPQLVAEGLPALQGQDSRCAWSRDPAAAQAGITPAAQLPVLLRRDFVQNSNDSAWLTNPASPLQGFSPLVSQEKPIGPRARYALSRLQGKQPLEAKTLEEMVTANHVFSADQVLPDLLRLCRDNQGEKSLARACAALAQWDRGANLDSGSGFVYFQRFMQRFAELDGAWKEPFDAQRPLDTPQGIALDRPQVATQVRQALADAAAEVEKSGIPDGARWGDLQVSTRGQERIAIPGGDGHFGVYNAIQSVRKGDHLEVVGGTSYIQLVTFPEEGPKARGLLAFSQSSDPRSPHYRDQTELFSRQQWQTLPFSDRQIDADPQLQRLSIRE
Polyadenylate-binding protein 1, sequence (P11940 whole entry): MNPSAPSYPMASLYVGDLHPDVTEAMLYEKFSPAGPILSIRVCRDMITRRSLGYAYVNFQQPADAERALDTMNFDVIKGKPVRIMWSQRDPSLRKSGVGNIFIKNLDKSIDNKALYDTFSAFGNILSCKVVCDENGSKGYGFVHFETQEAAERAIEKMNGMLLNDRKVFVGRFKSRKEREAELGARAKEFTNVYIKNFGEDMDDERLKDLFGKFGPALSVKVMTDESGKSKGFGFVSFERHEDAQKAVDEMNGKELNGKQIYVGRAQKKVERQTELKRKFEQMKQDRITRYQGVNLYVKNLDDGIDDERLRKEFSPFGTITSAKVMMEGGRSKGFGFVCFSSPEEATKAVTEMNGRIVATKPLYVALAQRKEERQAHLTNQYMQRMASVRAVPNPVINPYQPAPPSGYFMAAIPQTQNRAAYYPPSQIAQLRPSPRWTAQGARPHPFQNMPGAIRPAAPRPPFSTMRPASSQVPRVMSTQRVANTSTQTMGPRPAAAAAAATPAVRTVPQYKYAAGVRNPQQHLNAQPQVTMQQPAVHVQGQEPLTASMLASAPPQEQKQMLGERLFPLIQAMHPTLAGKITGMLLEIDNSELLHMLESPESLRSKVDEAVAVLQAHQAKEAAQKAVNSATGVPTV

With COc1ccc(/C(C#N)=C/c2ccccn2)cc1 the AC50 [1] was 19.9 µM (active).

With O=S(=O)(Nc1nc2ccccc2[nH]1)c1ccc(Cl)cc1 the IC50 (HEK293 [2]) was > 20 µM (inactive), the IC50 (HEK293 [3]) was > 20 µM (inactive) and the IC50 (HEK293 [4]) was > 20 µM (inactive). The IC50 (Tumor necrosis factor) was > 20 µM (inactive), the IC50 (HEK293 [5]) was > 20 µM (inactive) and the IC50 [6] was > 20 µM (inactive). The IC50 [7] was > 20 µM (inactive), the EC50 (HEK293 [8]) was 2.29 µM (active) and the IC50 [9] was 1.52 µM (active).

For C=CCNC1=N[C@@H](c2ccccc2)C(C(=O)OC)=C(C)N1CC, the IC50 [10] was 9.54 µM (active), the IC50 [11] was > 100 µM (inactive) and the IC50 [12] was 4.51 µM (active). The IC50 [13] was 5.62 µM (active).

In the case of Cc1c(CN(C)C)c2c(n1Cc1ccccc1)C(=O)c1ccc(Br)cc1-2, the IC50 (Bcl-2-like protein 10) is reported as > 50 µM (inactive), the CC50 [14] is reported as 10.5 µM (active) and the CC50 [15] is reported as > 20 µM (active). For the same molecule, the IC50 (cells) was 10.6 µM (active), the CC50 [16] was 22 µM (active) and the CC50 [17] was 15.3 µM (active).

With COc1ccc(C(c2cc3c(cc2O)OCO3)N2CCOCC2)cc1OC (stereo unspecified) the IC50 [18] was 12.2 µM (not active).
